Assay results from article PMC5514901, “Synthesis and evaluation of anthranilamide-based derivatives as FXa inhibitors” (Oncotarget, 2017).

Assays:
human FXa = target: T1, human FXa (Homo sapiens, UniProt P00742); assay: Inhibition activity measurement against FXa (chromogenic substrate CS-11(22)); type: biochemical; conditions: for IC50: human FXa, chromogenic substrate, 37°C, read at 405 nm; for FXa inhibitory activity (in words): SAR statement in text
T1 construct: purchased Hyphen BioMed
Description: The inhibition of FXa was measured using human FXa (Hyphen BioMed, city, Paris, FRA) and chromogenic substrate CS-11(22) (Hyphen BioMed, Paris, FRA) in 384-well microtiter plates at room temperature. […] 2 μL of FXa (56.8 nM), 16 μL of Tris buffer (adjust to pH 7.4 with HCl containing 0.3 M NaCl and 50 mM Tris) and 3 μL of test compound were added to the well, respectively. The negative control was composed of the same mixed solutions except replacing test compound with DMSO. […] After incubated at 37°C for 5 min, 8 μL of FXa substrate solution (3.5 mM) was added and then incubated at 37°C for 25 min. The FXa activity was measured at 405 nm using a SpectraMax M5 (Molecular Devices, Sunnyvale, CA, USA). The IC50 was calculated by the software named SPSS (IBM, North Castle, NY, USA) and the Probit function in it.

T1 sequence (P00742 235-488 limits assumed): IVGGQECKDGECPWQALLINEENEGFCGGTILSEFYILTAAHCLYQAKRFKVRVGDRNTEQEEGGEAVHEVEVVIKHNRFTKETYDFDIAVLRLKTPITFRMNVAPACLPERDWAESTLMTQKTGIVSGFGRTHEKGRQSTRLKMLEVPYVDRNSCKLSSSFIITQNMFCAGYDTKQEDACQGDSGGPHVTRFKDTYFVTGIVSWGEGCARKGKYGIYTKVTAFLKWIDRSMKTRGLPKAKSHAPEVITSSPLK
T1 sequence (P00742 41-179 partner limits assumed): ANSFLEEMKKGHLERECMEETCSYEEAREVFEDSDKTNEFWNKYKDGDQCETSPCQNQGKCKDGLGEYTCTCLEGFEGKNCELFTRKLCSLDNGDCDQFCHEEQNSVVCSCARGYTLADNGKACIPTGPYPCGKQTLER

| IC50 (human FXa) | melting point | FXa inhibitory activity (in words) (human FXa) | Structure (SMILES) |
| --- | --- | --- | --- |
| 121 nM | > 250 °C |  | O=C(Nc1ccc(Cl)cc1C(=O)Nc1ccc(-n2ccccc2=O)cc1)c1ccc(Br)s1 [6a-a, 5-bromo-N-(4-chloro-2-((4-(2-oxopyridin-1(2H)-yl)ph-enyl)carbamoyl)phenyl)thiophene-2-carboxamide] |
| > 1000 nM | > 250 °C | poor IC50 values at a micromole level | Cc1cccc(C(=O)Nc2ccc(-n3ccccc3=O)cc2)c1NC(=O)c1ccc(Br)s1 [6a-c, 5-bromo-N-(2-methyl-6-((4-(2-oxopyridin-1(2H)-yl)ph-enyl)carbamoyl)phenyl)thiophene-2-carboxamide] |
| 113 nM | > 250 °C |  | O=C(Nc1ccccc1C(=O)Nc1ccc(N2CCOCC2=O)cc1)c1ccc(Br)s1 [6a-d, 5-bromo-N-(2-((4-(3-oxomorpholino)phenyl)carbamo-yl)phenyl)thiophene-2-carboxamide] |
| 54.8 nM | > 250 °C |  | Cc1ccc(NC(=O)c2ccc(Br)s2)c(C(=O)Nc2ccc(N3CCOCC3=O)cc2)c1 [6a-f, 5-bromo-N-(4-methyl-2-((4-(3-oxomorpholino)phenyl)carbamoyl)phenyl)thiophene-2-carboxamide] |
| > 1000 nM | > 250 °C | poor IC50 values at a micromole level | Cc1cccc(C(=O)Nc2ccc(N3CCOCC3=O)cc2)c1NC(=O)c1ccc(Br)s1 [6a-g, 5-bromo-N-(2-methyl-6-((4-(3-oxomorpholino)phenyl)carbamoyl)phenyl)thiophene-2-carboxamide] |
| > 1000 nM | > 250 °C |  | Cc1ccc(C(=O)Nc2ccccc2C(=O)Nc2ccc(-n3ccccc3=O)cc2)s1 [6b, 5-methyl-N-(2-((4-(2-oxopyridin-1(2H)-yl)phenyl)carb-amoyl)phenyl)thiophene-2-carboxamide] |
| > 1000 nM | > 250 °C |  | O=C(Nc1ccccc1C(=O)Nc1ccc(-n2ccccc2=O)cc1)c1ccc(Cl)o1 [6c, 5-chloro-N-(2-((4-(2-oxopyridin-1(2H)-yl)phenyl)carb-amoyl)phenyl)furan-2-carboxamide] |
| > 1000 nM | > 250 °C |  | O=C(Nc1ccccc1C(=O)Nc1ccc(-n2ccccc2=O)cc1)c1ccc(Br)o1 [6d, 5-bromo-N-(2-((4-(2-oxopyridin-1(2H)-yl)phenyl)carb-amoyl)phenyl)furan-2-carboxamide] |
|  | > 250 °C |  | O=C(Nc1ccccc1C(=O)Nc1ccc(-n2ccccc2=O)cc1)c1ccc([N+](=O)[O-])cc1 [6e, 2-(4-nitrobenzamido)-N-(4-(2-oxopyridin-1 (2H)-yl)ph-enyl)benzamide] |
| > 1000 nM | > 250 °C |  | N#Cc1ccc(C(=O)Nc2ccccc2C(=O)Nc2ccc(-n3ccccc3=O)cc2)cc1 [6f, 2-(4-cyanobenzamido)-N-(4-(2-oxopyridin-1(2H)-yl)phenyl)benzamide] |
| > 1000 nM | > 250 °C |  | COc1ccc(C(=O)Nc2ccccc2C(=O)Nc2ccc(-n3ccccc3=O)cc2)cc1[N+](=O)[O-] [6g, 4-methoxy-3-nitro-N-(2-((4-(2-oxopyridin-1(2H)-yl)ph-enyl)carbamoyl)phenyl)benzamide] |
| 278 nM | > 250 °C |  | O=C(Nc1ccccc1C(=O)Nc1ccc(-n2ccccc2=O)cc1)c1ccc(Cl)nc1 [6h, 6-chloro-N-(2-((4-(2-oxopyridin-1(2H)-yl)phenyl)carb-amoyl)phenyl)nicotinamide] |
| 427 nM | > 250 °C |  | O=C(Nc1ccc(Cl)cc1C(=O)Nc1ccc(-n2ccccc2=O)cc1)c1ccc(Cl)nc1 [6h-a, 6-chloro-N-(4-chloro-2-((4-(2-oxopyridin-1(2H)-yl)ph-enyl)carbamoyl)phenyl)nicotinamide] |
| 212 nM | > 250 °C |  | Cc1ccc(NC(=O)c2ccc(Cl)nc2)c(C(=O)Nc2ccc(-n3ccccc3=O)cc2)c1 [6h-b, 6-chloro-N-(4-methyl-2-((4-(2-oxopyridin-1(2H)-yl)ph-enyl)carbamoyl)phenyl)nicotinamide] |
| > 1000 nM | > 250 °C |  | Cc1cccc(C(=O)Nc2ccc(-n3ccccc3=O)cc2)c1NC(=O)c1ccc(Cl)nc1 [6h-c, 6-chloro-N-(2-methyl-6-((4-(2-oxopyridin-1(2H)-yl)ph-enyl)carbamoyl)phenyl)nicotinamide] |
| > 1000 nM | > 250 °C |  | O=C(Nc1ccccc1C(=O)Nc1ccc(N2CCOCC2=O)cc1)c1ccc(Cl)nc1 [6h-d, 6-chloro-N-(2-((4-(3-oxomorpholino)phenyl)carbamo-yl)phenyl)nicotinamide] |
| 781 nM | > 250 °C |  | O=C(Nc1ccc(Cl)cc1C(=O)Nc1ccc(N2CCOCC2=O)cc1)c1ccc(Cl)nc1 [6h-e, 6-chloro-N-(4-chloro-2-((4-(3-oxomorpholino)phenyl)carbamoyl)phenyl)nicotinamide] |
| 453 nM | > 250 °C |  | Cc1ccc(NC(=O)c2ccc(Cl)nc2)c(C(=O)Nc2ccc(N3CCOCC3=O)cc2)c1 [6h-f, 6-chloro-N-(4-methyl-2-((4-(3-oxomorpholino)phenyl)carbamoyl)phenyl)nicotinamide] |
| > 1000 nM | > 250 °C |  | Cc1cccc(C(=O)Nc2ccc(N3CCOCC3=O)cc2)c1NC(=O)c1ccc(Cl)nc1 [6h-g, 6-chloro-N-(2-methyl-6-((4-(3-oxomorpholino)phenyl)carbamoyl)phenyl)nicotinamide] |
| > 1000 nM | > 250 °C |  | O=C(Nc1ccccc1C(=O)Nc1ccc(-n2ccccc2=O)cc1)c1ccc(F)c(F)c1 [6i, 3,4-difluoro-N-(2-((4-(2-oxopyridin-1(2H)-yl)phenyl)carbamoyl)phenyl)benzamide] |
| > 1000 nM | > 250 °C |  | O=C(Nc1ccccc1C(=O)Nc1ccc(-n2ccccc2=O)cc1)c1cc(F)c(F)c(F)c1 [6j, 3,4,5-trifluoro-N-(2-((4-(2-oxopyridin-1(2H)-yl)phenyl)arbamoyl)phenyl)benzamide] |
| > 1000 nM | > 250 °C | poor IC50 values at a micromole level | Cc1cccc(C(=O)Nc2ccc(-n3ccccc3=O)cc2)c1NC(=O)c1ccc(Cl)cc1Cl [6k-c, 2-(2,4-dichlorobenzamido)-3-methyl-N-(4-(2-oxopyrid-in-1(2H)-yl)phenyl)benzamide] |
| 128 nM | > 250 °C |  | O=C(Nc1ccccc1C(=O)Nc1ccc(N2CCOCC2=O)cc1)c1ccc(Cl)cc1Cl [6k-d, 2,4-dichloro-N-(2-((4-(3-oxomorpholino)phenyl)carba-moyl)phenyl)benzamide] |
| 259 nM | > 250 °C |  | O=C(Nc1ccc(Cl)cc1C(=O)Nc1ccc(N2CCOCC2=O)cc1)c1ccc(Cl)cc1Cl [6k-e, 2,4-dichloro-N-(4-chloro-2-((4-(3-oxomorpholino)phe-nyl)carbamoyl)phenyl)benzamide] |
| 282 nM | > 250 °C |  | Cc1ccc(NC(=O)c2ccc(Cl)cc2Cl)c(C(=O)Nc2ccc(N3CCOCC3=O)cc2)c1 [6k-f, 2,4-dichloro-N-(4-methyl-2-((4-(3-oxomorpholino)phe-nyl)carbamoyl)phenyl)benzamide] |
